Assay: Inhibition of AmpC beta lactamase by spectrophotometry
Conditions: not given

Point of comparison: O=C(O)c1ccc(C(=O)Nc2ccc(S(=O)(=O)Nc3cccc(B(O)O)c3)cc2)cc1, Ki 450 nM. Against it:
- Nc1cc(B(O)O)ccc1C(=O)O — 4-fold higher, 1800 nM
- O=C(O)c1ccc(C(=O)Nc2cccc(S(=O)(=O)Nc3cc(B(O)O)ccc3C(=O)O)c2)cc1 — 4.5-fold lower, 100 nM
- O=C(O)c1ccc(B(O)O)cc1NS(=O)(=O)c1cccc(S(=O)(=O)Nc2cc(B(O)O)ccc2C(=O)O)c1 — 20-fold lower, 23 nM
- Cc1noc(C)c1S(=O)(=O)Nc1cc(B(O)O)ccc1C(=O)O — within 1.5-fold, 350 nM
- O=S(=O)(Nc1cccc(B(O)O)c1)c1cccc(S(=O)(=O)Nc2cccc(B(O)O)c2)c1 — 7.5-fold lower, 60 nM

Assay: Lipophilicity, log D of the compound
Assay type: physicochemical
Conditions: octanol/water

O=C(O)c1ccc(B(O)O)cc1NS(=O)(=O)c1cc(S(=O)(=O)c2ccccc2)cs1 gave a logD of 0.026.

Reference: ChEMBL document CHEMBL1155495, “Structural study of phenyl boronic acid derivatives as AmpC beta-lactamase inhibitors” (Bioorg Med Chem Lett, 2010)
